Test results published in patent publication US20140296216A1, “PYRIMIDO[4,5-D]PYRIMIDINYL COMPOUNDS, PHARMACEUTICAL COMPOSITIONS AND USES THEREOF” (GUANGZHOU INSTITUTE OF BIOMEDICINE AND HEALTH, CHINESE …, priority 2011, published 2014).

Key:
EGFRWT = EGFRWT (Homo sapiens, UniProt P00533); assay: In vitro enzymatic activity assay (Z'-LYTE), wild type EGFR; assay type: biochemical; details: Z'-LYTE FRET peptide assay; read-out: EGFRWT kinase activity (IC50)
Excerpt: (§1) In vitro enzymatic activity assay: using Z′-LYTE™ technology (detect fluorescence, coupled-enzyme format, based on the differential sensitivity of phosphorylated and non-phosphorylated peptides to proteolytic cleavage), based on FRET, using Z′ LYTE™ FRET peptide substrate, detect the activity of compounds against enzymatic. […] After one hour, site specific protease which can recognize and cleaves non-phosphorylated FRET-peptide. After another hour, using an excitation wavelength of 400 nm excites, then detect the […] at 445 nm and 520 nm.

[1] = tested on: A431 (Human epidermal carcinoma, EGFR high expression); assay: Cell proliferation by MTT, A431; assay type: cell-based; details: A-431, read-out: A431 50% inhibitory concentration (IC50), 72 h
EGFR kinase = assay: In vitro kinase assays of FIGS. 1-22 (WT EGFR and EGFR T790M), inhibition at fixed concentration; assay type: biochemical; details: 1 μM; FIGS. 1-22 (WT EGFR, EGFR T790M)
Method: In vitro enzymatic activity assay: using Z′-LYTE™ technology (detect fluorescence, coupled-enzyme format, based on the differential sensitivity of phosphorylated and non-phosphorylated peptides to proteolytic cleavage), based on FRET, using Z′ LYTE™ FRET peptide substrate, detect the activity of compounds against enzymatic. (invitrogen, Z′-LYTE™ KINASE ASSAY KIT-TYR 2 PEPTIDE, PV3191) EGFR T790M kinase (invitrogen, PV4803) was diluted progressively, then FRET-peptide, ATP and different concentrations of compound are added to the solution. After one hour, site specific protease which can recognize and cleaves non-phosphorylated FRET-peptide. After another hour, using an excitation wavelength of 400 nm excites, then detect the […] at 445 nm and 520 nm.
In the enzymatic activity assay of 7-(substituted amino)-3,4-dihydropyrimido[4,5-d]pyrimidin-(1H)-ones against the EGFR kinase, due to the presence of the irreversible Michael addition reaction with the protein cysteine sites, some compounds show a relatively good inhibitive activity to both the two kinases. […] The R1 of 7-(substituted amino)-3,4-dihydropyrimido[4,5-d]pyrimidin-(1H)-ones plays a key role in the interaction between compounds and protein, especially when R1 is aryl, it can get the best activity. […]

EGFRL858R + T790M = EGFRL858R + T790M (Homo sapiens, UniProt P00533, L858R/T790M); assay: In vitro enzymatic activity assay (Z'-LYTE), EGFR L858R + T790M; assay type: biochemical; details: Z'-LYTE FRET peptide assay; read-out: EGFRL858R + T790M kinase activity (IC50)
Excerpt: as §1

EGFR T790M kinase = biological target: T1, EGFR T790M kinase (Homo sapiens, UniProt P00533, T790M); assay: In vitro enzymatic activity assay (Z'-LYTE), EGFR T790M; assay type: biochemical; details: Z'-LYTE FRET peptide assay; read-out: EGFRT790M kinase activity (IC50)
T1 construct: purchased invitrogen PV4803
Excerpt: as §1

[2] = tested on: HCC827 (lung cancer cells, EGFR E746-A750 deletion); assay: Cell proliferation by MTT, HCC827; assay type: cell-based; details: Homo sapiens, HCC827, read-out: HCC827 50% inhibitory concentration (IC50), 72 h
[3] = tested on: H1975 (lung cancer cells, EGFR L858R&T790M); assay: Cell proliferation by MTT, H1975; assay type: cell-based; details: Homo sapiens, NCI-H1975, read-out: H1975 50% inhibitory concentration (IC50), 72 h
EGFRL858R = EGFRL858R (Homo sapiens, UniProt P00533, L858R); assay: In vitro enzymatic activity assay (Z'-LYTE), EGFR L858R; assay type: biochemical; details: Z'-LYTE FRET peptide assay; read-out: EGFRL858R kinase activity (IC50)
Excerpt: as §1

EGFRL861Q = EGFRL861Q (Homo sapiens, UniProt P00533, L861Q); assay: In vitro enzymatic activity assay (Z'-LYTE), EGFR L861Q; assay type: biochemical; details: Z'-LYTE FRET peptide assay; read-out: EGFRL861Q kinase activity (IC50)
Excerpt: as §1

[4] = tested on: NCI-H820 (lung cancer cells); assay: Cell proliferation by MTT, NCI-H820; assay type: cell-based; details: NCI-H820, read-out: NCI-H820 50% inhibitory concentration (IC50), 72 h

EGFRL861Q, sequence (P00533 25-1210 L861Q): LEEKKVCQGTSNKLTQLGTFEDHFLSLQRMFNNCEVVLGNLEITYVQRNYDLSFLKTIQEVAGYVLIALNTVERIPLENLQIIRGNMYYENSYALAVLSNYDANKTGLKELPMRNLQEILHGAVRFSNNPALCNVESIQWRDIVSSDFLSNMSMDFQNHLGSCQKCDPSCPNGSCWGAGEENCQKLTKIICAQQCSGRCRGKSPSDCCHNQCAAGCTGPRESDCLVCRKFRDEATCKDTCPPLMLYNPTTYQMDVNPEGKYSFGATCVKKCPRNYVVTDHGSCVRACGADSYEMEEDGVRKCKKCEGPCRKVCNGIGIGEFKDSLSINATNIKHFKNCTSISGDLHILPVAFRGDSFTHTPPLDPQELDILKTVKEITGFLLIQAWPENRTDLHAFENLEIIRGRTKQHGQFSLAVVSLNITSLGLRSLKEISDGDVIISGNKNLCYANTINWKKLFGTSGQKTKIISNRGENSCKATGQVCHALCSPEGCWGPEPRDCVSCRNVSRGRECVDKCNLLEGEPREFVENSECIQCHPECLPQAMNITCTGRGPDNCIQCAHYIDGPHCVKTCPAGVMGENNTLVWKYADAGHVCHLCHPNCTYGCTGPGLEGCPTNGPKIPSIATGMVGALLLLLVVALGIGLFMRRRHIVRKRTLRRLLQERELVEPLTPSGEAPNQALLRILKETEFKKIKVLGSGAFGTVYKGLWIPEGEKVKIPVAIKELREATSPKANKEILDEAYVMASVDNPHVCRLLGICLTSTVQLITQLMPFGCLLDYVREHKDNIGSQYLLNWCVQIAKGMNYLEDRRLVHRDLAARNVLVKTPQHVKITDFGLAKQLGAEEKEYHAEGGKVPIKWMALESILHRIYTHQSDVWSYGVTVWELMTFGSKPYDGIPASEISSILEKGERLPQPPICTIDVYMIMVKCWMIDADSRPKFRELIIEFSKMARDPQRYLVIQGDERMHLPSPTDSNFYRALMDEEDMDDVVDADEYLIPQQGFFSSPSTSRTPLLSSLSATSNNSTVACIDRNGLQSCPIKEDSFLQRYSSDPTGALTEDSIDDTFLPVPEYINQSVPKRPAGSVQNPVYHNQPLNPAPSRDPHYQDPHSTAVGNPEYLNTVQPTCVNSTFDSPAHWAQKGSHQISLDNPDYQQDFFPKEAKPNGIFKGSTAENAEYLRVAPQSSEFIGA
EGFRL858R + T790M, sequence (P00533 25-1210 T790M/L858R): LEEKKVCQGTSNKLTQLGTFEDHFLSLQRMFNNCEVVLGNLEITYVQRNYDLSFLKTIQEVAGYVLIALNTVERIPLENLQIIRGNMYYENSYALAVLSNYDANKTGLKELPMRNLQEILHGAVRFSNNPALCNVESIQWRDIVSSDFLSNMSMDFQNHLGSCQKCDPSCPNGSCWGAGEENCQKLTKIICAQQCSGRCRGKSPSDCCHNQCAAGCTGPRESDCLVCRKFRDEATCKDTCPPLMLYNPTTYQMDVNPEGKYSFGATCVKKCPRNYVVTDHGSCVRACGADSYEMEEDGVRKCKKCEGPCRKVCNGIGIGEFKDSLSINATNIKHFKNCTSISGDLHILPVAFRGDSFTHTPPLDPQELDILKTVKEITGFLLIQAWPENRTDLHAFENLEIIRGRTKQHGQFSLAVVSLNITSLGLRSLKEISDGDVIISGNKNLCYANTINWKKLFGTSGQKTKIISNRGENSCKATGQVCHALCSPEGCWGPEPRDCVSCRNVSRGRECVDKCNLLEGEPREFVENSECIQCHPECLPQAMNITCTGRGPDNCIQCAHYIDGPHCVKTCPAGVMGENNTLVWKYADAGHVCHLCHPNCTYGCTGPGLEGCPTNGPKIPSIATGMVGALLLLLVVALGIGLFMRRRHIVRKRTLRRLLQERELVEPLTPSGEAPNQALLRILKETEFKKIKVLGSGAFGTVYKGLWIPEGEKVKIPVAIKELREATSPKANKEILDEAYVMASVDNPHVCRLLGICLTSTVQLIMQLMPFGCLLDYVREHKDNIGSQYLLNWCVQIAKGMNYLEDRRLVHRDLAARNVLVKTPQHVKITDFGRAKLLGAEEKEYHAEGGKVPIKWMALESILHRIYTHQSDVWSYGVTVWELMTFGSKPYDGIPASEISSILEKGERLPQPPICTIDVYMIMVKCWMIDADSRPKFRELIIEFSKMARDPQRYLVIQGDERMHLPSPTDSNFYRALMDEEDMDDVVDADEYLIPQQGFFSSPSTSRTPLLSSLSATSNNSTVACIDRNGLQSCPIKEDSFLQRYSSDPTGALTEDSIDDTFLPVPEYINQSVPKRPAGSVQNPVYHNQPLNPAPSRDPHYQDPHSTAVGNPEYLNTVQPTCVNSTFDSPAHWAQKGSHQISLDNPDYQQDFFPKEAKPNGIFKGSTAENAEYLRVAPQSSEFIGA
T1 sequence (P00533 25-1210 T790M): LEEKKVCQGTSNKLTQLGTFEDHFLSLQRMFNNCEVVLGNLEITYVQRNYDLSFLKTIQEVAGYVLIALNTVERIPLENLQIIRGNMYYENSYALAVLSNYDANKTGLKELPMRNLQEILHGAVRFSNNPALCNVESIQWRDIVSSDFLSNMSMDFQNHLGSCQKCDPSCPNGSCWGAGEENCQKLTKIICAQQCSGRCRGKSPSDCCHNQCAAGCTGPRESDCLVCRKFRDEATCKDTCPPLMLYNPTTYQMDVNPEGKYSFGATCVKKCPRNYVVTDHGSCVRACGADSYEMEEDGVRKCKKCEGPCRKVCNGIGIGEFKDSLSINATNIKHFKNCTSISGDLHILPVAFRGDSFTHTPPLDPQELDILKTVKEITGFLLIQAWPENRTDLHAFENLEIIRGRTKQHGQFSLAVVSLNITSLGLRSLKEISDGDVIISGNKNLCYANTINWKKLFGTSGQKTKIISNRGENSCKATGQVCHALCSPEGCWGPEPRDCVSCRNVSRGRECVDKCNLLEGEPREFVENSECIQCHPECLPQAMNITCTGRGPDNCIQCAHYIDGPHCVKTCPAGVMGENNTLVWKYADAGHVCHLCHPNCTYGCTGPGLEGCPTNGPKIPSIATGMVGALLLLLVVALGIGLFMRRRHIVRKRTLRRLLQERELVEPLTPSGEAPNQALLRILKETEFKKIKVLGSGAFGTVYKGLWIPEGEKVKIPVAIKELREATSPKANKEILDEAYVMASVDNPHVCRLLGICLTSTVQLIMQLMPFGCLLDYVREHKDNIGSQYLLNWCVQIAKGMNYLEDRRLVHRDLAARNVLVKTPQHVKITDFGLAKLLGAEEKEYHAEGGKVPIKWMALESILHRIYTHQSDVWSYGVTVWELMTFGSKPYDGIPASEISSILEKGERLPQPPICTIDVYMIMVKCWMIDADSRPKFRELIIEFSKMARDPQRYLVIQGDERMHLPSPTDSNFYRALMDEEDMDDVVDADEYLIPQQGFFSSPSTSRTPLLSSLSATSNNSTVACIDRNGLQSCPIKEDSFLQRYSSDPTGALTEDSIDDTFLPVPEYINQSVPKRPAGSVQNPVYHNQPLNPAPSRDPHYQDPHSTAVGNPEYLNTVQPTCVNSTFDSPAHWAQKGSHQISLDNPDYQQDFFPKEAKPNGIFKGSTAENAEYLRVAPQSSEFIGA
EGFRL858R, sequence (P00533 25-1210 L858R): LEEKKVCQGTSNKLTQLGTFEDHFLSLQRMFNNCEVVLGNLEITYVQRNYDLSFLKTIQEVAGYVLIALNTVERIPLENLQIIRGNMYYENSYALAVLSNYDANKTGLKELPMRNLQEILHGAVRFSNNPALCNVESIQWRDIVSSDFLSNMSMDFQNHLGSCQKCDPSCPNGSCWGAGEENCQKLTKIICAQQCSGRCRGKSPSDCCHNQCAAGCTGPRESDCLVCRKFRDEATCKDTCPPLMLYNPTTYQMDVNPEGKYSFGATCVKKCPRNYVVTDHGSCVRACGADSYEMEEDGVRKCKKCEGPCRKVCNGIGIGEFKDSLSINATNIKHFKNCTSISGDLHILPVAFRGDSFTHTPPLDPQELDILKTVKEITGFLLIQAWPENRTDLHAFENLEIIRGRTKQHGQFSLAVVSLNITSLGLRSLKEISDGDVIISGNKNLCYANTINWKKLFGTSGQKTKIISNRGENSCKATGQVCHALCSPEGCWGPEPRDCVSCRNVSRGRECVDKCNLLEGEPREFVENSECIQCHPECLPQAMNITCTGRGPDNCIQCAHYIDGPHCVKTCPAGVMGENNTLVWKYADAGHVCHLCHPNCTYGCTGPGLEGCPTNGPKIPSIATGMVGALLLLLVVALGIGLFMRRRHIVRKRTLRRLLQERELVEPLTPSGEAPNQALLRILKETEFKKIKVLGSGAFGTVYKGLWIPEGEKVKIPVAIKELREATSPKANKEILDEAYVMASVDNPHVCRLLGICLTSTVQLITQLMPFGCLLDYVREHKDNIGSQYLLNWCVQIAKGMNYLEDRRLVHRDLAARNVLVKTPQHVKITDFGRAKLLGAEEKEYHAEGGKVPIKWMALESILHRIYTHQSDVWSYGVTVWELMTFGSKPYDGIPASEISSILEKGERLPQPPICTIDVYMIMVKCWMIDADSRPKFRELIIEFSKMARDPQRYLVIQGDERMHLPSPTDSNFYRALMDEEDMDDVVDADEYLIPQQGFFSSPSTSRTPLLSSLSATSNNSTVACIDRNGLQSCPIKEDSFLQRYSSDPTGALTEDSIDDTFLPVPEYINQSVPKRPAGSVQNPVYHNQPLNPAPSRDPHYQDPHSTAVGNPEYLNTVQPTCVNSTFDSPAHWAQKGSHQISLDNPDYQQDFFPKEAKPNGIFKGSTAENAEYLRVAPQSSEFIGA

SMILES | IC50 (EGFRWT) | IC50 [1] | inhibitive activity for inhibiting a kinase at a relatively high test concentration (EGFR kinase) | IC50 (EGFRL858R + T790M) | IC50 (EGFR T790M kinase) | IC50 [2] | IC50 [3] | IC50 (EGFRL858R) | IC50 (EGFRL861Q) | IC50 [4]
COc1cc(N2CCN(C)CC2)ccc1Nc1ncc2c(n1)N(c1cccc(N)c1)C(=O)N(C)C2 [C-EGF33, 1-(3-aminophenyl)-7-(2-methoxy-4-(4-methylpiperazin-1-yl)phenylamino)-3-methyl-3,4-dihydropyrimido[4,5-d]pyrimidin-2(1H)-one] | 100 to 1000 nM | > 30000 nM | poor | 1000 to 10000 nM | 1000 to 10000 nM | 4890 nM | > 20000 nM | 100 to 1000 nM | 1000 to 10000 nM | 
C=CC(=O)Nc1cccc(N2C(=O)N(C)Cc3cnc(Nc4ccc(N(C)C)cc4OC)nc32)c1 [C-EGF23, N-(3-(7-(4-(dimethylamino)-2-methoxyphenylamino)-3-methyl-2-oxo-3,4-dihydropyrimido[4,5-d]pyrimidin-1(2H)-yl)phenyl)acrylamide] | ≤ 10 nM | 28200 nM |  | 10 to 100 nM | 10 to 100 nM | 616 nM | 3860 nM | ≤ 10 nM | ≤ 10 nM | > 100000 nM
C=CC(=O)Nc1cccc(N2C(=O)N(C)Cc3cnc(Nc4ccc(N5CCN(C)CC5)cc4OCC)nc32)c1 [Compound X009, N-(3-(7-(2-ethoxy-4-(4-methylpiperazin-1-yl)phenylamino)-3-methyl-2-oxo-3,4-dihydropyrimido[4,5-d]pyrimidin-1(2H)-yl)phenyl)acrylamide] | ≤ 10 nM | > 5000 nM |  | ≤ 10 nM | 10 to 100 nM | 3 nM | 710 nM | ≤ 10 nM | ≤ 10 nM | > 100000 nM
C=CC(=O)Nc1cccc(N2C(=O)N(C)Cc3cnc(Nc4ccc(N5CCN(C)CC5)cc4OC(C)C)nc32)c1 [Compound X006, N-(3-(7-(2-isopropoxy-4-(4-methylpiperazin-1-yl)phenylamino)-3-methyl-2-oxo-3,4-dihydropyrimido[4,5-d]pyrimidin-1(2H)-yl)phenyl)acrylamide] | ≤ 10 nM | 62500 nM |  | 10 to 100 nM | 10 to 100 nM | 108 nM | 543 nM | 10 to 100 nM | 10 to 100 nM | > 100000 nM
C=CC(=O)Nc1cccc(N2C(=O)N(C)Cc3cnc(Nc4ccc(N5CCCN(C)CC5)cc4OC)nc32)c1 [C-EGF17, N-(3-(7-(2-methoxy-4-(4-methyl-1,4-diazepan-1-yl)phenylamino)-3-methyl-2-oxo-3,4-dihydropyrimido[4,5-d]pyrimidin-1(2H)-yl)phenyl)acrylamide] | ≤ 10 nM | 11100 nM |  | ≤ 10 nM | ≤ 10 nM | 62 nM | 710 nM | ≤ 10 nM | ≤ 10 nM | > 100000 nM
C=CC(=O)Nc1cccc(N2C(=O)N(C)Cc3cnc(Nc4ccc(N5CCOCC5)cc4)nc32)c1 [Compound X007, N-(3-(3-methyl-7-(4-morpholinophenylamino)-2-oxo-3,4-dihydropyrimido[4,5-d]pyrimidin-1(2H)-yl)phenyl)acrylamide] | ≤ 10 nM | 3480 nM |  | ≤ 10 nM | ≤ 10 nM | 256 nM | 696 nM | ≤ 10 nM | ≤ 10 nM | > 100000 nM
C=CC(=O)Nc1cccc(N2C(=O)N(C)Cc3cnc(Nc4ccc(OCCOC)cc4OC)nc32)c1 [C-EGF22, N-(3-(7-(2-methoxy-4-(2-methoxyethoxy)phenylamino)-3-methyl-2-oxo-3,4-dihydropyrimido[4,5-d]pyrimidin-1(2H)-yl)phenyl)acrylamide] | ≤ 10 nM | 24900 nM |  | 10 to 100 nM | 10 to 100 nM | 495 nM | 1070 nM | ≤ 10 nM | ≤ 10 nM | > 100000 nM
C=CC(=O)Nc1cccc(N2C(=O)N(c3ccc(OC)cc3)Cc3cnc(Nc4ccc(N5CCN(C)CC5)cc4OC)nc32)c1 [C-EGF25, N-(3-(7-(2-methoxy-4-(4-methylpiperazin-1-yl)phenylamino)-3-(4-methoxyphenyl)-2-oxo-3,4-dihydropyrimido[4,5-d]pyrimidin-1(2H)-yl)phenyl)acrylamide] | ≤ 10 nM | 1230 nM |  | ≤ 10 nM | ≤ 10 nM | 198 nM | 501 nM | ≤ 10 nM | ≤ 10 nM | 54600 nM
C=CC(=O)Nc1cccc(N2C(=O)N(C)Cc3cnc(Nc4ccc(N5CCC(N(C)C)CC5)cc4)nc32)c1 [Compound X004, N-(3-(7-(4-(4-(dimethylamino)piperidin-1-yl)phenylamino)-3-methyl-2-oxo-3,4-dihydropyrimido[4,5-d]pyrimidin-1(2H)-yl)phenyl)acrylamide] | ≤ 10 nM | > 100000 nM |  | ≤ 10 nM | ≤ 10 nM | 181 nM | 261 nM | ≤ 10 nM | ≤ 10 nM | > 100000 nM
C=CC(=O)Nc1cccc(N2C(=O)N(C)Cc3cnc(Nc4ccc(N5CCCCC5)cc4)nc32)c1 [Compound X002, N-(3-(3-methyl-2-oxo-7-(4-(piperidin-1-yl)phenylamino)-3,4-dihydropyrimido[4,5-d]pyrimidin-1(2H)-yl)phenyl)acrylamide] | ≤ 10 nM | 8030 nM |  | ≤ 10 nM | ≤ 10 nM | 154 nM | 420 nM | ≤ 10 nM | ≤ 10 nM | > 100000 nM
C=CC(=O)Nc1cccc(N2C(=O)N(C)Cc3cnc(Nc4ccc(N5CCN(C)CC5)cc4C)nc32)c1 [Compound X010, N-(3-(3-methyl-7-(2-methyl-4-(4-methylpiperazin-1-yl)phenylamino)-2-oxo-3,4-dihydropyrimido[4,5-d]pyrimidin-1(2H)-yl)phenyl)acrylamide] | ≤ 10 nM | 1450 nM |  | ≤ 10 nM | ≤ 10 nM | 53 nM | 173 nM | ≤ 10 nM | ≤ 10 nM | 41500 nM
C=CC(=O)Nc1cccc(N2C(=O)N(C)Cc3cnc(NC)nc32)c1 [C-EGF21, N-(3-(3-methyl-7-(methylamino)-2-oxo-3,4-dihydropyrimido[4,5-d]pyrimidin-1 (2H)-yl)phenyl)acrylamide] | 100 to 1000 nM | > 100000 nM |  | 100 to 1000 nM | ≥ 10000 nM | 11900 nM | 22500 nM | 100 to 1000 nM | 1000 to 10000 nM | > 100000 nM
C=CC(=O)Nc1cccc(N2C(=O)N(C)Cc3cnc(Nc4ccccc4)nc32)c1 [C-EGF10, N-(3-(3-methyl-2-oxo-7-(phenylamino)-3,4-dihydropyrimido[4,5-d]pyrimidin-1(2H)-yl)phenyl)acrylamide] | ≤ 10 nM | 1580 nM |  | 10 to 100 nM | ≤ 10 nM | 28 nM | 213 nM | 10 to 100 nM | 10 to 100 nM | > 100000 nM
